# Measurements published in article PMC12040169 (PLOS Biology, 2025).
# Test: in vitro
# Settings: human, hela cells, % viability
row,SMILES,"viability at 28.5 h, 10 µM"
1,O=C(c1ccccc1)c1ccc(S(=O)(=O)N2CCCN(Cc3c[nH]nc3-c3ccccc3)CC2)cc1 [CBK062773],85.1%
2,Cc1c(CN(C)CC(=O)Nc2ccc(Br)cc2Cl)cnn1C [CBK304214],86%
3,CCN1C(=O)CC2(C1=O)C(=O)N(Cc1nc(OC)cc(OC)n1)c1ccccc12 (centres unmarked) [CBK075510],75.8%
4,CC(C)(C)OC(=O)NCCNCc1cc(F)cc(F)c1 [CBK056698],90.3%
5,O=C(NC1CCN(Cc2ccccc2)CC1)c1cnc(-c2ccc(Cl)cc2)c(-c2cccnc2)c1 [CBK037602],92.2%
6,COC(=O)Cn1nnc(-c2ccccc2)n1 [CBK069215],84.8%
7,O=C(O)c1ccc(NC(=O)c2cn(-c3ccccc3)nc2-c2ccccc2)cc1 [CBK296120],94.4%
8,O=S(=O)(c1ccc(-n2cnc(Cl)c2Cl)cc1)N1CCCN(Cc2csc(-c3ccccc3)n2)CC1 [CBK062790],104%
9,Brc1ccc2c(c1)COC1(CN3CCC1CC3)O2 (centres unmarked) [CBK105268],107%
10,OC(c1ccc2c(c1)OCO2)C1CCCCC1N1CCCCCC1 (centres unmarked) [CBK022779C],100%
11,CC(C)NC(=O)Cn1cnc2c1c(=O)n(C)c(=O)n2C [CBK133257],86.9%
12,CCOC(=O)COc1ccc2c(=O)c(Oc3ccc([N+](=O)[O-])cc3)c(C)oc2c1C [CBK266092],96.6%
13,COc1ccc(/C=C/C(=O)C2CC2)c(C(=O)O)c1OC [CBK286639],97%
14,C[C@@H](c1ccccc1)n1c(=O)[nH]c2ncc(-c3ccc(N(C)C)cc3)nc21 [CBK064352],103%
15,O=C(NCCc1ccc(Cl)cc1)C1CCN(C(=O)CCc2ccccc2F)C1 (centres unmarked) [CBK285931],84.1%
16,CC(CC(=O)N1CCCC(c2cc3cccnc3[nH]2)C1)n1ccnc1 (centres unmarked) [CBK285034],105%
17,CN(C1=NS(=O)(=O)c2ccccc21)c1ccccc1C(=O)O [CBK287094],90%
18,COc1ncc(-c2cnc3[nH]c(=O)n(C4CC4)c3n2)cn1 [CBK064908],89.1%
19,CC(C)C(=O)Nc1cccc(-c2cn3ccsc3n2)c1 [CBK096253],67%
20,CN1CCN(c2cc(N)nc(N)n2)CC1 [CBK266102],107%
21,COc1ccc([C@]23CC[C@H](NC(=O)c4ccc(C(F)(F)F)c(F)c4)C[C@H]2CN(C)C3)cc1OC [CBK082743T],110%
22,COCc1nc2ccccc2n1CC(=O)N1CCC(c2ccccc2)C1 (centres unmarked) [CBK282211],97.1%

row,SMILES,"viability at 28.5 h, 10 µM"
1,N#C/C(C(=O)Nc1ccccc1)=C(/O)c1nn(-c2ccccc2)c2c1CSc1ccccc1-2 [CBK017685],92.7%
2,O=C(Cc1c[nH]c2ccccc12)Nc1ccccc1N1CCNCC1 [CBK028288T],98.1%
3,O=C1CCC[C@]2(CN(C(=O)C3CC3)C[C@H]2c2ccccc2F)N1 [CBK283357],106%
4,CC(C)(C)CC(C)(C)Nc1nc(N)nc(N)n1 [CBK022832],101%
5,Cc1nc(C)c(C(=O)N2CC(C(=O)N3CCN(c4ccccc4)CC3)C2)s1 [CBK285666],93.4%
6,CC(=O)Nc1cccc(-n2nnnc2SC2CCCCC2=O)c1 (centres unmarked) [CBK304600],95.4%
7,O=C(CN1C(=O)COc2ccc(Cl)cc21)Nc1ccc2[nH]c(=O)[nH]c2c1 [CBK268295],111%
8,O=C(O)CC1SC(=O)N(c2ccccc2)C1=O (centres unmarked) [CBK287085],78.8%
9,COc1cc(-c2nccnc2N2CCN(c3ccncc3)CC2)cc(OC)c1OC [CBK036847],92%
10,Cc1cc(OCC(=O)Nc2nn(Cc3ccccc3Cl)cc2Cl)ccc1[N+](=O)[O-] [CBK268113],100%
11,Oc1cccc(OCCOc2cccc(C(F)(F)F)n2)c1 [CBK115797],84.7%
12,CC1(C)CC(=O)C(C(=S)Nc2ccccc2)=C(NCc2ccccc2)C1 [CBK264498],91.6%
13,COc1cc(OC)nc(CN2CCOC3(CCN(C(=O)OCc4ccccc4)CC3)C2)n1 [CBK161101T],96.2%
14,COCc1nnc(Sc2ccc(C(F)(F)F)cn2)s1 [CBK115219],100%
15,COc1ccc(CC(=O)N(C)Cc2nnc3ccccn23)cc1 [CBK304935],87.8%
16,Cc1ccccc1Nc1nc(CN2CCC3(CCCOC3)C2)cs1 (centres unmarked) [CBK304255],95%
17,O=C(O)c1cc2ccccc2[nH]1 [CBK015732],100%
18,O=C(O)c1ccc(-c2n[nH]c(=O)c3c2CCCC3)cc1 [CBK287868],93.6%
19,COc1cccc([C@H]2CN(C(=O)c3ccccc3)[C@@H]3CCN(Cc4ccccc4)C[C@H]23)c1 [CBK285624],88.2%
20,CCCCN(C)c1nccnc1-c1ccncc1 [CBK037655],93.4%
21,CN(C)C(=O)c1ccc(-c2ccc3c(c2)OC(C2CCN(C(=O)OCc4ccccc4)CC2)OC3)cc1 (centres unmarked) [CBK144649],85.5%
22,O=[N+]([O-])c1ccc2c(c1)nnn2CN1CCCCC1 [CBK261663],90.4%
